Laboratory results as given in patent US4001248A, “N-cycloalkylmethyl decahydroisoquinolines” (Eli Lilly and Company, priority 1974, dated 1977).
Values joined by “and” are separate entries in the source; they are usually repeats but may differ in a detail not shown here. Equal entries are not always repeated.

What was measured:
[1] = system: writhing in mice induced by the intraperitoneal injection of acetic acid; test: mouse-writhing test (inhibition of writhing induced by intraperitoneal acetic acid); assay type: in vivo; conditions: reading at 0.25 hours
Source text: In the Table, column 1 gives the name of the compund; column 2, the dosage in mg./kg. of mouse weight; column 3, the route of administration of the drug ("S.C." is subcutaneous and "or" is oral); and column 4, the percent inhibition found at the particular dose level. […] Median inhibiting doses (I.D.50) are also included in the Table.

[2] = system: rat tail jerk; test: rat tail jerk assay (increase in reaction time over control); assay type: in vivo
Source text: The compounds of this invention are also active in the rat tail jerk assay, another standard pharmacologic test for analgesic activity of the opiate-type. Such activity is manifested as an increase in the reaction time of the animal in removing (jerking) its tail from a nearby heat stimulus (a resistance wire) after drug administration compared to control time (no drug administered). Table 2 which follows gives the increased reaction times over control times produced by the compounds of this invention when administered subcutaneously. In Tables 2 and 3, column 1 gives the name of the compound; column 2, the dose; column 3, time of observation after administration of the drug; column 4, the increase in reaction time above control in seconds; and column 5, the level of significance of the results ("p" value). […] All drugs were administered as aqueous solutions. More than one value for a given dose level indicates multiple determinations. The results are not averaged.

[3] = system: morphine; test: modified rat tail jerk assay, antagonism of morphine; assay type: in vivo, rats; conditions: subcutaneous
Description: The ability of the compounds of this invention to antagonize the action of morphine, an opiate, is shown by the following modification of the aforementioned rat tail jerk assay: The standard assay procedure is used with the exception that a 7 amps. current is used instead of a 6 amps. current in the hot wire to decrease the measurable agonist effects of the antagonist. The drugs under test are then administered to groups of rats at different dose levels at different times prior to test, with a 5 mg./kg. dose of morphine invariably being administered 10 minutes prior to test. Positive evidence of antagonism is a decreased reaction time over that to be expected from the morphine. […] Among the compounds of this invention, those in which R in Structure I is cyclopropylmethyl are the preferred antagonists, showing activity in the above test procedure. […] In a series of determinations, it was ascertained that the minimum subcutaneous dose necessary to reduce the analgesic effects of a 5 mg./kg. subcutaneous dose of morphine was in the range 2.5-5.0 mg./kg. and the minimum oral dose, 5-10 mg./kg.

[4] = system: morphine induced Straub tail; test: blocking of morphine induced Straub tail in mice; assay type: in vivo; conditions: for blocking on the morphine-induced Straub tail: 15 and 30 minutes before assay
Description: In this assay, a 40 mg./kg. dose of morphine was administered to mice 15 minutes prior to assay, and the test drug at various intervals before assay. Trans-dl-1 -cyclopropylmethyl-3a-(m-hydroxyphenyl)-1,2,3,3a,4,5,6,7,7a,8-decahydroisoquinoline maleate gave a 100 percent block of the Straubed tail effected by a subcutaneous injection of 40 mg./kg. of morphine when the test drug was given at a dose of 50 mg./kg. subcutaneously 15 minutes prior to assay, and 80 percent when given 30 minutes prior to assay. The l(-) isomer gave 100 percent blocking on the morphine-induced Straub tail at 50 and 20 mg./kg. doses 15 and 30 minutes before assay.

[5] = toxicity (L.D.50); assay type: in vivo, mice; conditions: compared with dl mixture; listed as l(-) isomer

For `O=C(O)/C=C\C(=O)O.Oc1cccc([C@@]23CCCC[C@H]2CN(CC2CC2)CC3)c1` (stereo in doubt) [Trans-l(-)-1-cyclopropylmethyl-3a-(m-hydroxyphenyl)-1,2,3,3a] [Trans-l(-)-1-cyclopropylmethyl-3a-(m-hydroxyphenyl)-1,2,3,3a,4,5,6,7,7a,8-decahydroisoquinoline maleate], which “% Inhibition” value ([1]; 2 mg./kg. S.C.) is on record?
Its value is 47%.

And the “% Inhibition” value ([1]; 5 mg./kg. S.C.)?
Its value is 72%.

What about the “Increase in Reaction Time Over Control” value ([2]; oral, 5 mg./kg., 60 min) of the same compound?
Its value is “.20 s”.

And the “Increase in Reaction Time Over Control” value ([2]; oral, 10 mg./kg., 60 min)?
Its value is “.65 s”.

What about the “Increase in Reaction Time Over Control” value ([2]; oral, 25 mg./kg., 60 min) of the same compound?
Its value is 1.30 s.

What about the “Increase in Reaction Time Over Control” value ([2]; oral, 50 mg./kg., 30 min) of the same compound?
The value was 2.25 s.

And the “Increase in Reaction Time Over Control” value ([2]; oral, 50 mg./kg., 60 min)?
The value was 2.80 s.

What about the “Increase in Reaction Time Over Control” value ([2]; oral, 50 mg./kg., 120 min) of the same compound?
The value was “.80 s”.

What about the “Increase in Reaction Time Over Control” value ([2]; oral, 100 mg./kg., 60 min) of the same compound?
Its value is 3.15 s.

What about the “Increase in Reaction Time Over Control” value ([2]; oral, 200 mg./kg., 30 min, 20 sec. cut off) of the same compound?
The value was 4.90 s.

What about the “Increase in Reaction Time Over Control” value ([2]; oral, 200 mg./kg., 60 min) of the same compound?
Its value is 5.40 s.

And the “Increase in Reaction Time Over Control” value ([2]; oral, 200 mg./kg., 120 min)?
Its value is 2.65 s.

And the “Increase in Reaction Time Over Control” value ([2]; subcutaneous, 0.1 mg./kg., 30 min)?
Its value is 85 s.

And the “Increase in Reaction Time Over Control” value ([2]; subcutaneous, 0.5 mg./kg., 30 min)?
The value was 1.30 s.

And the “Increase in Reaction Time Over Control” value ([2]; subcutaneous, 1 mg./kg., 30 min)?
The value was 0 s.

What about the “Increase in Reaction Time Over Control” value ([2]; subcutaneous, 5 mg./kg., 10 min) of the same compound?
Its value is 2.75 s.

And the “Increase in Reaction Time Over Control” value ([2]; subcutaneous, 5 mg./kg., 15 min)?
Its value is 3.45 s.

What about the “Increase in Reaction Time Over Control” value ([2]; subcutaneous, 5 mg./kg., 30 min) of the same compound?
Its value is 3.55 s and 2.95 s.

What about the “Increase in Reaction Time Over Control” value ([2]; subcutaneous, 5 mg./kg., 30 min, 20 sec. cut off) of the same compound?
Its value is 6.65 s and 6.95 s.

And the “Increase in Reaction Time Over Control” value ([2]; subcutaneous, 5 mg./kg., 60 min)?
The value was 1.0 s.

What about the “Increase in Reaction Time Over Control” value ([2]; subcutaneous, 5 mg./kg., 120 min) of the same compound?
Its value is 0 s.

What about the “Increase in Reaction Time Over Control” value ([2]; subcutaneous, 5 mg./kg., 180 min) of the same compound?
Its value is 0 s.

And the “Increase in Reaction Time Over Control” value ([2]; subcutaneous, 10 mg./kg., 10 min, 20 sec. cut off)?
The value was 7.30 s.

And the “Increase in Reaction Time Over Control” value ([2]; subcutaneous, 10 mg./kg., 15 min)?
Its value is 5.80 s.

What about the “Increase in Reaction Time Over Control” value ([2]; subcutaneous, 10 mg./kg., 15 min, 20 sec. cut off) of the same compound?
Its value is 6.70 s.

What about the “Increase in Reaction Time Over Control” value ([2]; subcutaneous, 10 mg./kg., 60 min) of the same compound?
The value was 3.0 s.

What about the “Increase in Reaction Time Over Control” value ([2]; subcutaneous, 10 mg./kg., 90 min) of the same compound?
The value was 2.55 s.

And the “Increase in Reaction Time Over Control” value ([2]; subcutaneous, 10 mg./kg., 120 min)?
The value was 4.0 s.

And the “Increase in Reaction Time Over Control” value ([2]; subcutaneous, 10 mg./kg., 180 min)?
The value was 1.50 s.

What about the “Increase in Reaction Time Over Control” value ([2]; subcutaneous, 50 mg./kg., 15 min) of the same compound?
Its value is 7.35 s.

What about the “dose showing antagonism of morphine” value [3] of the same compound?
Its value is 1 to 2 mg/kg.

What about the “blocking on the morphine-induced Straub tail” value ([4]; 20 mg./kg.) of the same compound?
The value was 100%.

And the “blocking on the morphine-induced Straub tail” value ([4]; 50 mg./kg.)?
Its value is 100%.

What about the “blocking the morphine induced Straub tail” value ([4]; morphine 40 mg./kg.) of the same compound?
Its value is “manifests antagonistic effects in blocking the morphine induced Straub tail in mice”.

What about the “toxicity relative to the dl mixture” value [5] of the same compound?
Its value is “less toxic than the dl mixture”.
